# Measurements: PubChem BioAssay (NCI)
#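 48-hour exposure; five concentrations; linearly interpolated endpoints. The concentration for full growth arrest is given as TGI.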
# What was measured:
# Test in all cases: NCI tumour cell line growth inhibition, 48 h
# DMS 114 small cell lung = tested on: DMS 114 small cell lung
# DMS 273 small cell lung = tested on: DMS 273 small cell lung
# HOP-18 NSCLC = tested on: HOP-18 NSCLC
# KM20L2 colon = tested on: KM20L2 colon
# M19-MEL melanoma = tested on: M19-MEL melanoma
# P388 leukemia = tested on: P388 leukemia
# P388/ADR leukemia = tested on: P388/ADR leukemia
# SN12K1 renal = tested on: SN12K1 renal
# SNB-78 CNS = tested on: SNB-78 CNS
# LXFL 529 NSCLC = tested on: LXFL 529 NSCLC
# RXF-631 renal = tested on: RXF-631 renal
smiles,measurement,setting,value
CC1=C2C(=CO[C@H](C)[C@H]2C)C(=O)C(C(=O)O)=C1O,TGI,DMS 114 small cell lung,30 µM
same,TGI,DMS 273 small cell lung,123 µM
same,TGI,HOP-18 NSCLC,57.9 µM
same,TGI,KM20L2 colon,71.7 µM
same,TGI,M19-MEL melanoma,79.1 µM
same,TGI,P388 leukemia,500 µM
same,TGI,P388/ADR leukemia,67.7 µM
same,TGI,SN12K1 renal,42 µM
same,TGI,SNB-78 CNS,82.8 µM
O=C1c2c(O)cccc2-c2nn(CCNCCO)c3ccc(NCCNCCO)c1c23,TGI,DMS 114 small cell lung,0.178 µM
same,TGI,DMS 273 small cell lung,2.54 µM
same,TGI,HOP-18 NSCLC,5.41 µM
same,TGI,KM20L2 colon,9.29 µM
same,TGI,LXFL 529 NSCLC,1.14 µM
same,TGI,M19-MEL melanoma,1.15 µM
same,TGI,RXF-631 renal,5.54 µM
same,TGI,SNB-78 CNS,5.99 µM
CC1(C)CC2(CC(C)(C)N1O)NC(=O)OC2=O,TGI,DMS 114 small cell lung,> 100 µM
same,TGI,DMS 273 small cell lung,> 100 µM
same,TGI,HOP-18 NSCLC,> 100 µM
same,TGI,KM20L2 colon,> 100 µM
same,TGI,M19-MEL melanoma,> 100 µM
same,TGI,P388 leukemia,> 100 µM
same,TGI,P388/ADR leukemia,> 100 µM
same,TGI,SN12K1 renal,> 100 µM
same,TGI,SNB-78 CNS,> 100 µM
COc1cccc(N[C@@H]2c3cc4c(cc3C(c3cc(OC)c(O)c(OC)c3)[C@H]3C(=O)OCC32)OCO4)c1 (stereo not given in full),TGI,DMS 114 small cell lung,4.77 µM
same,TGI,DMS 273 small cell lung,2.44 µM
same,TGI,HOP-18 NSCLC,21.7 µM
same,TGI,KM20L2 colon,> 29.4 µM
same,TGI,M19-MEL melanoma,> 59.7 µM
same,TGI,P388 leukemia,0.385 µM
same,TGI,P388/ADR leukemia,0.984 µM
same,TGI,SN12K1 renal,9.55 µM
same,TGI,SNB-78 CNS,> 100 µM
Cc1cc(=O)[nH]c(NN2C(Cl)C(=O)C2c2ccc([N+](=O)[O-])cc2)n1 (stereo not given),TGI,DMS 114 small cell lung,28.7 µM
same,TGI,DMS 273 small cell lung,22.7 µM
same,TGI,HOP-18 NSCLC,23.9 µM
same,TGI,KM20L2 colon,56.7 µM
same,TGI,LXFL 529 NSCLC,20.8 µM
same,TGI,M19-MEL melanoma,17.3 µM
same,TGI,SNB-78 CNS,25 µM
CN=C(/N=c1\ssc(=NC)n1C)N(C)C,TGI,DMS 114 small cell lung,> 100 µM
same,TGI,DMS 273 small cell lung,> 100 µM
same,TGI,HOP-18 NSCLC,> 100 µM
same,TGI,KM20L2 colon,> 100 µM
same,TGI,LXFL 529 NSCLC,> 100 µM
same,TGI,M19-MEL melanoma,> 100 µM
same,TGI,RXF-631 renal,> 100 µM
NCc1cccc(O)c1O,TGI,DMS 114 small cell lung,> 100 µM
same,TGI,DMS 273 small cell lung,> 100 µM
same,TGI,HOP-18 NSCLC,> 100 µM
same,TGI,KM20L2 colon,> 100 µM
same,TGI,LXFL 529 NSCLC,> 100 µM
same,TGI,M19-MEL melanoma,> 100 µM
same,TGI,RXF-631 renal,> 100 µM
same,TGI,SNB-78 CNS,> 100 µM
Cc1ccccc1-c1nc2c(C(=O)NCCN(C)C)cccc2[nH]1,TGI,DMS 114 small cell lung,> 100 µM
same,TGI,DMS 273 small cell lung,> 100 µM
same,TGI,HOP-18 NSCLC,54.8 µM
same,TGI,KM20L2 colon,> 100 µM
same,TGI,P388 leukemia,44.3 µM
same,TGI,P388/ADR leukemia,> 100 µM
same,TGI,SN12K1 renal,> 100 µM
same,TGI,SNB-78 CNS,> 100 µM
